Here are results for one molecule from patent US20200270310A1, “MAFG AS A POTENTIAL THERAPEUTIC TARGET TO RESTORE CHEMOSENSITIVITY IN PLATINUM-RESISTANT CANCER CELLS” (FUNDACÓIN PARA LA INVESTIGACIÓN BIOMÉDICA DEL HOSPITAL …, priority 2017, published 2020).

The subject of test [1] is H23R cells. The test is described as follows: ROS production after CDDP exposure, resistant cells. The class given is cell-based, human. The protocol:
(§1) FIG. 2. Viability assays and Reactive Oxygenated Species detection after CDDP treatment in H23 cell lines. (A) Viability to CDDP in H23S (left) and H23R (right) at 24, 48 and 72 hours and 6 concentrations of CDDP measured by MTT assay. (B) Increment of ROS production in H23S (left) and H23R (right) after 24, 48 and 72 hours of CDDP treatment. $: 72h (vs Basal).
(§2) H23/A2780 cells were cultured in 96-well black plates at density of 10,000 cells/well. Cells were treated with 6 different doses of CDDP for 24, 48 and 72 h in RPMI containing 10% FBS. Then treatments were removed and cells were loaded with the fluorescent probe 2′,7′-dichlorodihydrofluorescein diacetate (H2DCFDA) (10 μM) for 45 minutes in RPMI medium (FBS free). Cells were washed twice with RPMI (10% FBS), and fluorescence was recorded in a Fluostar Optima, each hour, over 4 hours period. […] ROS production was calculated dividing the mean H2DCFDA fluorescence by the mean viability. […] All experiments included cells treated with RPMI alone (Basal), and one well without cells as fluorescence basal.
(§3) H23/A2780 cells were cultured in 96-well black plates at density of 10,000 cells/well. […] Cells were washed twice with RPMI (10% FBS), and fluorescence was recorded in a Fluostar Optima at 520 nm after excitation at 485 nm. […] ROS production was calculated dividing the mean H2DCFDA fluorescence by the mean viability. […]

Test [2] concerns H23S cells. The test is described as follows: ROS production after CDDP exposure, sensitive cells. The class given is cell-based, human. How it is done:
as §1, §2, §3

Take `[NH2][Pt]([NH2])([Cl])[Cl]` [CDDP, Cisplatin]: the “ROS production versus basal untreated cells” value in test [1] (3.00 μg/ml CDDP) was found to be 159%; in test [2] (3.00 μg/ml CDDP), 300%. The “ROS after treatment with the drug” value was “no changes” in test [1] (Example 1) and “increased” in test [2] (Example 1).
